The source of these data is US9908895B2, “Tricyclic fused thiophene derivatives as JAK inhibitors” (Incyte Corporation, priority 2012, dated 2018).

For this assay, the system named is human JAK1. In words: In vitro JAK kinase assay (HTRF), JAK1. In kind it is biochemical. The settings on record: ratio of JAK2 IC50 to JAK1 IC50 at 1 mM ATP. Here is the method: Compounds herein were tested for inhibitory activity of JAK targets according to the following in vitro assay described in Park et al., Analytical Biochemistry 1999, 269, 94-104. The catalytic domains of human JAK1 (a.a. 837-1142), JAK2 (a.a. 828-1132) and JAK3 (a.a. 781-1124) were expressed using baculovirus in insect cells and purified. The catalytic activity of JAK1, JAK2 or JAK3 was assayed by measuring the phosphorylation of a biotinylated peptide. The phosphorylated peptide was detected by homogenous time resolved fluorescence (HTRF). IC50s of compounds were measured for each kinase in the 40 μL reactions that contain the enzyme, ATP and 500 nM peptide in 50 mM Tris (pH 7.8) buffer with 100 mM NaCl, 5 mM DTT, and 0.1 mg/mL (0.01%) BSA. For the 1 mM IC50 measurements, ATP concentration in the reactions was 1 mM. Reactions were carried out at room temperature for 1 hour and then stopped with 20 μL 45 mM EDTA, 300 nM SA-APC, 6 nM Eu-Py20 in assay buffer (Perkin Elmer, Boston, Mass.). Binding to the Europium labeled antibody took place for 40 minutes and HTRF signal was measured on a PHERA star plate reader (BMG, Cary, N.C.). The Example compounds were each tested in the Example A assay (see Table 1 for data for the compounds of the examples as tested by the assay of Example A at 1 mM ATP).
In general terms: Time-resolved FRET reads energy transfer from a long-lived donor to a nearby acceptor.

Regarding `N#CC[C@H]1CC[C@H](n2c(CO)nc3cnc4ccsc4c32)CC1` [Example 17, {trans-4-[2-(Hydroxymethyl)-1H-imidazo[4,5-d]thieno[3,2-b]pyridin-1-yl]cyclohexyl}acetonitrile], the JAK2/JAK1 was more than 10.

Turning to `C[C@H](O)c1nc2cnc3ccsc3c2n1[C@H]1CC[C@H](CC#N)OC1` [Example 45, ((2R,5S)-5-{2-[(1S)-1-Hydroxyethyl]-1H-imidazo[4,5-d]thieno[3,2-b]pyridin-1-yl}tetrahydro-2H-pyran-2-yl)acetonitrile], the JAK2/JAK1 is recorded as more than 10.

Consider `CC(F)c1nc2cnc3ccsc3c2n1[C@H]1CC[C@H](CC#N)OC1` (stereo partly drawn) [Example 71, {(2R,5S)-5-[2-(1-Fluoroethyl)-1H-imidazo[4,5-d]thieno[3,2-b]pyridin-1-yl]tetrahydro-2H-pyran-2-yl}acetonitrile], for which the JAK2/JAK1 is on record as more than 10.

Regarding `C[C@@H](O)c1nc2cnc3ccsc3c2n1C1CCN(CCCC(F)(F)F)CC1` [Example 60, (1R)-1-{1-[1-(4,4,4-Trifluorobutyl)piperidin-4-yl]-1H-imidazo[4,5-d]thieno[3,2-b]pyridin-2-yl}ethanol], the JAK2/JAK1 is recorded as more than 10.

In the case of `COC(=O)NC[C@H]1CC[C@H](n2c([C@@H](C)O)nc3cnc4ccsc4c32)CC1` [Example 78, Methyl [(trans-4-{2-[(1R)-1-hydroxyethyl]-1H-imidazo[4,5-d]thieno[3,2-b]pyridin-1-yl}cyclohexyl)methyl]carbamate], the JAK2/JAK1 was more than 10.

Take `CC(N)c1nc2cnc3ccsc3c2n1[C@H]1CC[C@H](CC#N)OC1.O=C(O)C(F)(F)F` (stereo partly drawn) [Example 68, {(2R,5S)-5-[2-(1-Aminoethyl)-1H-imidazo[4,5-d]thieno[3,2-b]pyridin-1-yl]tetrahydro-2H-pyran-2-yl}acetonitrile trifluoroacetate]: the JAK2/JAK1 is listed as more than 10.

With `CCOC(=O)NC[C@H]1CC[C@H](n2c([C@@H](C)O)nc3cnc4ccsc4c32)CC1` [Example 82, Ethyl [(trans-4-{2-[(1R)-1-hydroxyethyl]-1H-imidazo[4,5-d]thieno[3,2-b]pyridin-1-yl}cyclohexyl)methyl]carbamate], the JAK2/JAK1 is more than 10.

Consider `CCc1nc2cnc3ccsc3c2n1[C@H]1CC[C@H](CC#N)OC1` [Example 39, [(2R,5S)-5-(2-Ethyl-1H-imidazo[4,5-d]thieno[3,2-b]pyridin-1-yl)tetrahydro-2H-pyran-2-yl]acetonitrile], for which the JAK2/JAK1 is more than 10.

On to `C[C@@H](O)c1nc2cnc3ccsc3c2n1[C@H]1CC[C@H](CCC#N)CC1` [Example 8, 3-(trans-4-{2-[(1R)-1-Hydroxyethyl]-1H-imidazo[4,5-d]thieno[3,2-b]pyridin-1-yl}cyclohexyl)propanenitrile], for which the JAK2/JAK1 was more than 10.

For “((1R,2S,4S)-2-Hydroxy-4-{2-[(1R)-1-hydroxyethyl]-1H-imidazo[4,5-d]thieno[3,2-b]pyridin-1-yl}cyclohexyl)acetonitrile trifluoacetate and ((1S,2R,4R)-2-hydroxy-4-{2-[(1R)-1-hydroxyethyl]-1H-imidazo[4,5-d]thieno[3,2-b]pyridin-1-yl}cyclohexyl)acetonitrile trifluoacetate [37 (second peak)]”, the JAK2/JAK1 is recorded as more than 10.

For the compound `CC(C)OC(=O)NC[C@H]1CC[C@H](n2c([C@@H](C)O)nc3cnc4ccsc4c32)CO1` [Example 76, Isopropyl [((2R,5S)-5-{2-[(1R)-1-hydroxyethyl]-1H-imidazo[4,5-d]thieno[3,2-b]pyridin-1-yl}tetrahydro-2H-pyran-2-yl)methyl]carbamate], the JAK2/JAK1 is on record as more than 10.

Turning to `C[C@@H](O)c1nc2cnc3ccsc3c2n1[C@H]1CC[C@H](CF)CC1` [Example 12, (1R)-1-{1-[trans-4-(Fluoromethyl)cyclohexyl]-1H-imidazo[4,5-d]thieno[3,2-b]pyridin-2-yl}ethanol], the JAK2/JAK1 was more than 10.

In the case of `C[C@@H](O)c1nc2cnc3ccsc3c2n1[C@H]1CCCN(C(=O)CC#N)C1.O=C(O)C(F)(F)F` [Example 51, 3-((3S)-3-{2-[(1R)-1-Hydroxyethyl]-1H-imidazo[4,5-d]thieno[3,2-b]pyridin-1-yl}piperidin-1-yl)-3-oxopropanenitrile trifluoroacetate], the JAK2/JAK1 is reported as more than 10.

Regarding `N#CC[C@H]1CC[C@H](n2c(CO)nc3cnc4ccsc4c32)CO1` [Example 91, {(2R,5S)-5-[2-(Hydroxymethyl)-1H-imidazo[4,5-d]thieno[3,2-b]pyridin-1-yl]tetrahydro-2H-pyran-2-yl}acetonitrile], the JAK2/JAK1 is reported as more than 10.

For the compound `CC(C)OC(=O)NC[C@H]1CC[C@H](n2c([C@@H](C)O)nc3cnc4ccsc4c32)CC1` [Example 84, Isopropyl [(trans-4-{2-[(1R)-1-hydroxyethyl]-1H-imidazo[4,5-d]thieno[3,2-b]pyridin-1-yl}cyclohexyl)methyl]carbamate], the JAK2/JAK1 is more than 10.

Turning to `C[C@@H](O)c1nc2cnc3ccsc3c2n1[C@H]1CC[C@H](CO)CC1` [Example 11, (1R)-1-{1-[trans-4-(Hydroxymethyl)cyclohexyl]-1H-imidazo[4,5-d]thieno[3,2-b]pyridin-2-yl}ethanol], the JAK2/JAK1 is on record as more than 10.

Regarding `C[C@@H](O)c1nc2cnc3ccsc3c2n1[C@H]1CCCN(CCC#N)C1` [Example 56, 3-((3S)-3-{2-[(1R)-1-Hydroxyethyl]-1H-imidazo[4,5-d]thieno[3,2-b]pyridin-1-yl}piperidin-1-yl)propanenitrile], the JAK2/JAK1 is more than 10.

As to `CCC(=O)NC[C@H]1CC[C@H](n2c(CC#N)nc3cnc4ccsc4c32)CC1` [Example 89, N-({trans-4-[2-(Cyanomethyl)-1H-imidazo[4,5-d]thieno[3,2-b]pyridin-1-yl]cyclohexyl}methyl)propanamide], the JAK2/JAK1 was more than 10.

For the compound `C[C@@H](O)c1nc2cnc3ccsc3c2n1[C@H]1CC[C@H](O)CC1` [Example 3, trans-4-{2-[(1R)-1-Hydroxyethyl]-1H-imidazo[4,5-d]thieno[3,2-b]pyridin-1-yl}cyclohexanol], the JAK2/JAK1 is recorded as more than 10.

Turning to `CC(C)c1nc2cnc3ccsc3c2n1[C@H]1CC[C@H](CC#N)OC1` [Example 42, [(2R,5S)-5-(2-Isopropyl-1H-imidazo[4,5-d]thieno[3,2-b]pyridin-1-yl)tetrahydro-2H-pyran-2-yl]acetonitrile], the JAK2/JAK1 is recorded as more than 10.

With `C[C@@H](O)c1nc2cnc3ccsc3c2n1[C@H]1CC[C@@H](CC#N)OC1` [Example 21, ((2S,5S)-5-{2-[(1R)-1-Hydroxyethyl]-1H-imidazo[4,5-d]thieno[3,2-b]pyridin-1-yl}tetrahydro-2H-pyran-2-yl)acetonitrile], the JAK2/JAK1 is more than 10.

Take `N#CC[C@H]1CC[C@H](n2c(C3CC3)nc3cnc4ccsc4c32)CO1` [Example 43, [(2R,5S)-5-(2-Cyclopropyl-1H-imidazo[4,5-d]thieno[3,2-b]pyridin-1-yl)tetrahydro-2H-pyran-2-yl]acetonitrile]: the JAK2/JAK1 is more than 10.

Regarding `C[C@@H](O)c1nc2cnc3ccsc3c2n1[C@H]1CCC(CO)OC1` (stereo partly drawn) [Example 19, (1R)-1-{1-[(3S)-6-(Hydroxymethyl)tetrahydro-2H-pyran-3-yl]-1H-imidazo[4,5-d]thieno[3,2-b]pyridin-2-yl}ethanol], the JAK2/JAK1 was more than 10.

As to `CCOC(=O)NC[C@H]1CC[C@H](n2c(CC#N)nc3cnc4ccsc4c32)CC1` [Example 87, Ethyl({trans-4-[2-(cyanomethyl)-1H-imidazo[4,5-d]thieno[3,2-b]pyridin-1-yl]cyclohexyl}methyl)carbamate], the JAK2/JAK1 is listed as more than 10.

As for `C[C@@H](O)c1nc2cnc3ccsc3c2n1[C@H]1CCN(CCCC(F)(F)F)C1` [Example 64, (1R)-1-{1-[(3S)-1-(4,4,4-Trifluorobutyl)pyrrolidin-3-yl]-1H-imidazo[4,5-d]thieno[3,2-b]pyridin-2-yl}ethanol], the JAK2/JAK1 is more than 10.

`C[C@@H](O)c1nc2cnc3ccsc3c2n1[C@H]1CC[C@H](CCS(C)(=O)=O)CC1` [Example 5, (1R)-1-(1-{trans-4-[2-(Methylsulfonyl)ethyl]cyclohexyl}-1H-imidazo[4,5-d]thieno[3,2-b]pyridin-2-yl)ethanol]: the JAK2/JAK1 is given as more than 10.

Regarding `CC(=O)NC[C@H]1CC[C@H](n2c([C@@H](C)O)nc3cnc4ccsc4c32)CC1` [Example 79, N-[(trans-4-{2-[(1R)-1-Hydroxyethyl]-1H-imidazo[4,5-d]thieno[3,2-b]pyridin-1-yl}cyclohexyl)methyl]acetamide], the JAK2/JAK1 was more than 10.

Regarding `C[C@@H](O)c1nc2cnc3ccsc3c2n1C1CCC(NCCC#N)CC1` (single isomer, unassigned) [30 (first peak)], the JAK2/JAK1 is on record as more than 2.

For the compound `CC(CC(=O)N1CCC[C@H](n2c([C@@H](C)O)nc3cnc4ccsc4c32)C1)c1ccccc1` (stereo partly drawn) [Example 55, (1R)-1-{1-[(3S)-1-(3-Phenylbutanoyl)piperidin-3-yl]-1H-imidazo[4,5-d]thieno[3,2-b]pyridin-2-yl}ethanol], the JAK2/JAK1 is recorded as more than 10.

Consider `CCc1nc2cnc3ccsc3c2n1[C@H]1CC[C@H](CC#N)CC1` [Example 47, [trans-4-(2-Ethyl-1H-imidazo[4,5-d]thieno[3,2-b]pyridin-1-yl)cyclohexyl]acetonitrile], for which the JAK2/JAK1 is more than 10.
